This experiment deals with T1, Androgen Receptor (AR) protein (Homo sapiens, UniProt P10275, T878A).
T1 construct: endogenous in cells; host or cells: LNCaP
In words: Androgen Receptor (AR) protein degradation assay in LNCaP cells, western blotting. The format is cell-based. Particulars: 20 h; for inhibition at 0.01 µM: 0.01 μM compound; for inhibition at 0.1 µM: 0.1 μM compound; for inhibition at 1 µM: 1 μM compound; for inhibition at 10 µM: 10 μM compound. The protocol:
Experimental Example 1: Androgen Receptor (AR) Protein Degradation Assay
After treating LNCaP cells with the synthesized Example compound, the amount of AR protein present in the cells was measured. The amount of AR protein was measured using western blotting detection method. The protocol of the experiment using LNCaP cells was as follows:
[Culture] LNCaP cells were resuspended in RPMI1640 MEDIUM (Hyclone, SH30027.01), 10% FBS (Hyclone, SV30207.02), and 1% Penicillin-streptomycin (Welgene, LS 202-02) media to be 3×10^5/mL. Then, 1 mL each was seeded in a 12-well plate. After that, they were cultured for 3 days.
[Compound treatment] 10 μl of 0.1, 1, 10, and 100 μM compound, which is the final compound treatment concentration and a 100× stock of 0.001, 0.01, 0.1, and 1 μM, was added in 1 ml media of each well, and 20 hours later, the cells were harvested.
[Cell Lysis] Cell pellets were suspended using 1% SDS lysis buffer (50 mM Tris, 1 mM EDTA, 1% SDS, pH 8.0, 0.5 mM PMSF, 1× Protease/Phosphatase inhibitor Cocktail (Cell Signaling Technology, 5872s)), and sonication (70% AMP, 5 cycles (30 sec ON/59 sec OFF)) was performed. Cell lysate was obtained after centrifugation at 4° C., 15000 g, for 20 minutes.
[Protein quantification] A BCA protein assay (SMART™ BCA Protein Assay Kit, iNtRON Biotechnology, 21071) was performed using a 96-well microplate. After adding 5 μl cell lysate and 5 μl 1% SDS lysis buffer to each well of the 96-well plate, 200 μl of BCA reagent (Reagent A:Reagent B=50:1) was additionally added. After incubation at 37° C. for 30 minutes, it was cooled at room temperature for 10 minutes. Then, absorbance was measured at a wavelength of 562 nm. The unknown protein concentration was measured using a BSA standard curve (0, 0.125, 0.25, 0.5, 1, 2 mg/ml). Western blotting samples were prepared by mixing cell lysate, 1% SDS lysis buffer, 4× Bolt™ LDS Sample buffer (Invitrogen, B0008), and 10× Bolt™ Sample Reducing Agent (Invitrogen, B0009) and boiling the mixture at 70° C. for 10 minutes.
[Electrophoresis] After loading 8 μg of protein sample into each well of Bolt™ 4 to 12%, Bis-Tris, 1.0 mm Mini Protein Gel, 17-well (Invitrogen, NW04127BOX), Bolt™ MES SDS Running Buffer (Invitrogen, B0002) was used for electrophoresis at 200V (constant V) for 50 minutes.
[Transfer] Using electrophoresis gel and Trans-Blot® Turbo™ Transfer Starter System (Bio-RAD, #17001918, Mini Nitrocellulose), transfer proceeded for 15 minutes under the condition of 1.3A (Constant A) and 25V (Limit V). To confirm protein transfer, 15 ml of Ponceau S solution (Sigma, P7170-1L) was used for staining for 1 minute, followed by washing to confirm the degree of transfer.
[Blocking] Membranes for AR detection were blocked for 45 minutes with 5% skim milk/0.2% TBST (Skim milk: BD, 232100/20× TBS: Biosesang, TR2008-100-00/10% Tween 20 Solution: Bio-RAD, #161-0781). Membranes for GAPDH and β-actin detection were blocked for 45 minutes with Odyssey blocking buffer: 0.1% TBST=1:1 (Odyssey blocking buffer: Li-COR Biosciences, 927-50000).
[Antibody and detection] The primary AR antibody (Androgen Receptor: CST, 5153s) was mixed with 5% skim milk/0.2% TBST at a ratio of 1:1000 and attached for 3 hours at room temperature. Primary β-actin antibody (GeneTex, 629630) was mixed with 5% BSA/0.2% TBST at a ratio of 1:2000 and attached for 3 hours at room temperature. Primary GAPDH antibody (GeneTex, 100118) was mixed with 5% BSA/0.2% TBST at a ratio of 1:2000 and attached for 3 hours at room temperature. After 3 hours, it was washed 3 times every 5 minutes using TBST (0.2% Tween 20). Anti-rabbit IgG, HRP-linked Antibody (CST, 7074s), secondary antibody for the AR antibody was mixed with 5% skim milk/0.2% TBST at a ratio of 1:5000 and attached for 45 minutes at room temperature. […]
A general note: A western blot detects proteins with antibodies after separation by electrophoresis.

Molecules are shown by their SMILES.

What is called inhibition is the relative decrease from the control value, in per cent.

T1 sequence (P10275 whole entry T878A): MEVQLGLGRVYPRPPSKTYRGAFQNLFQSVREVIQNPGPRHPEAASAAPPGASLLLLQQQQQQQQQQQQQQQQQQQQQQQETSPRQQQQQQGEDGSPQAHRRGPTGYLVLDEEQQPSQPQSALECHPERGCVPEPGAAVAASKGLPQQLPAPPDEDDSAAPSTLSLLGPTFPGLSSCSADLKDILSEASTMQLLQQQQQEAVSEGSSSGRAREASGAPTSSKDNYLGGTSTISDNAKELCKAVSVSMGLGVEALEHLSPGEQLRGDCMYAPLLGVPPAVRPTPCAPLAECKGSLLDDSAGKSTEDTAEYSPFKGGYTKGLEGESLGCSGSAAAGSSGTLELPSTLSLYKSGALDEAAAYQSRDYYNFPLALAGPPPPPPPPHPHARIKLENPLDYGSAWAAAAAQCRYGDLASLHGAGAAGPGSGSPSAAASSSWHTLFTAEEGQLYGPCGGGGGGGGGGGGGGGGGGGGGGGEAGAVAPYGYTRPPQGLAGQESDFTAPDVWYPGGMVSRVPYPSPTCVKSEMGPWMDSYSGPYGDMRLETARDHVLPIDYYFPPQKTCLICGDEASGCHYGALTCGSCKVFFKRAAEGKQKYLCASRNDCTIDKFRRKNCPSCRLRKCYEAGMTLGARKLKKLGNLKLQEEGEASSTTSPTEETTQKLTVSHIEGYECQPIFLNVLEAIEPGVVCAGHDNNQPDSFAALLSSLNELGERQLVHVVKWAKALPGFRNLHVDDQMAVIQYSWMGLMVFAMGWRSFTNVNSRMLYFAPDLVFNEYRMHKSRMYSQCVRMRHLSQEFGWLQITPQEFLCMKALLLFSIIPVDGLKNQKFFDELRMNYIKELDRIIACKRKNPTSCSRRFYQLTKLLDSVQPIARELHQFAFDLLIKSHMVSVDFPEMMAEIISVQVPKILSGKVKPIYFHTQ
T1 sequence (Q96SW2 whole entry partner): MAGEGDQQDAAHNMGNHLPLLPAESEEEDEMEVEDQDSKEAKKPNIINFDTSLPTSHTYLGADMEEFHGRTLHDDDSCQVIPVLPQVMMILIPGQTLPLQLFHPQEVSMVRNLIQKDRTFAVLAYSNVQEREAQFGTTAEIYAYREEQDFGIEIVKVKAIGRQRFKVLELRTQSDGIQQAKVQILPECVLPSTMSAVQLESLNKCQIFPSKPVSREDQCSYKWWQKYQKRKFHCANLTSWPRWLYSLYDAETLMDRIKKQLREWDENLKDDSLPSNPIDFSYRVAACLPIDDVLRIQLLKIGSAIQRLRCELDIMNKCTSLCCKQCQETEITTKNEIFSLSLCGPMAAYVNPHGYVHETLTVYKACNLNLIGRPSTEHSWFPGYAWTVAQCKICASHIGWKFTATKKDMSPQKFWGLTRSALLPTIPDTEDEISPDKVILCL

Regarding `N#Cc1ccc(N2CCC(C(=O)Nc3ccc(N4CCN(C(=O)CCCCCNc5ccc6c(c5)C(=O)N(C5CCC(=O)NC5=O)C6=O)CC4)cn3)CC2)cc1C(F)(F)F` (stereo not drawn) [Example 111, 1-(4-cyano-3-(trifluoromethyl)phenyl)-N-(5-(4-(6-((2-(2,6-dioxopiperidin-3-yl)-1,3-dioxoisoindolin-5-yl)amino)hexanoyl)piperazin-1-yl)pyridin-2-yl)piperidine-4-carboxamide], the inhibition at 0.01 µM came to 29%, the inhibition at 0.1 µM came out at 70%, the inhibition at 1 µM came out at 67% and the inhibition at 10 µM came to 67%.
As to `N#Cc1ccc(N2CCC(C(=O)Nc3ccc(CCC4CCN(CC5CCN(c6ccc7c(c6)C(=O)N(C6CCC(=O)NC6=O)C7=O)CC5)CC4)cn3)CC2)cc1C(F)(F)F` (stereo not drawn) [Example 133, 1-(4-cyano-3-(trifluoromethyl)phenyl)-N-(5-(2-(1-((1-(2-(2,6-dioxopiperidin-3-yl)-1,3-dioxoisoindolin-5-yl)piperidin-4-yl)methyl)piperidin-4-yl)ethyl)pyridin-2-yl)piperidine-4-carboxamide], the inhibition at 0.01 µM is 60%, the inhibition at 0.1 µM stood at 93% and the inhibition at 1 µM was 98%.
Taken in the same sequence, the figures for `N#Cc1ccc(N2CCC(C(=O)Nc3ccc(N4CCC(CCN5CCC6(CC5)CN(c5ccc7c(n5)CN(C5CCC(=O)NC5=O)C7=O)C6)CC4)cn3)CC2)cc1C(F)(F)F` (stereo not drawn) [Example 96, 1-(4-cyano-3-(trifluoromethyl)phenyl)-N-(5-(4-(2-(2-(6-(2,6-dioxopiperidin-3-yl)-5-oxo-6,7-dihydro-5H-pyrrolo[3,4-b]pyridin-2-yl)-2,7-diazaspiro[3.5]nonan-7-yl)ethyl)piperidin-1-yl)pyridin-2-yl)piperidine-4-carboxamide] were 71%, 93% and 91%.
With `N#Cc1ccc(N2CCC(C(=O)Nc3ccc(CN4CCC(CN5CCN(c6ccc7c(c6)C(=O)N(C6CCC(=O)NC6=O)C7=O)CC5)CC4)cn3)CC2)cc1C(F)(F)F` (stereo not drawn) [Example 161, 1-(4-cyano-3-(trifluoromethyl)phenyl)-N-(5-((4-((4-(2-(2,6-dioxopiperidin-3-yl)-1,3-dioxoisoindolin-5-yl)piperazin-1-yl)methyl)piperidin-1-yl)methyl)pyridin-2-yl)piperidine-4-carboxamide], the inhibition at 0.01 µM stood at 9%, the inhibition at 0.1 µM is 58% and the inhibition at 1 µM was 86%.
Take `N#Cc1ccc(N2CCC(C(=O)Nc3ccc(N4CCC(CN5CC6(CCN(c7ccc8c(c7)C(=O)N(C7CCC(=O)NC7=O)C8=O)CC6)C5)CC4)nc3)CC2)cc1C(F)(F)F` (stereo not drawn) [Example 59, 1-(4-cyano-3-(trifluoromethyl)phenyl)-N-(6-(4-((7-(2-(2,6-dioxopiperidin-3-yl)-1,3-dioxoisoindolin-5-yl)-2,7-diazaspiro[3.5]nonan-2-yl)methyl)piperidin-1-yl)pyridin-3-yl)piperidine-4-carboxamide]: the inhibition at 0.01 µM stood at 9%, the inhibition at 0.1 µM came out at 32%, the inhibition at 1 µM worked out at 47% and the inhibition at 10 µM is 68%.
With `N#Cc1ccc(N2CCC(C(=O)Nc3ccc(N4CCC(CN5CCN(C[C@H]6CCN(c7ccc8c(n7)CN(C7CCC(=O)NC7=O)C8=O)C6)CC5)CC4)cn3)CC2)cc1C(F)(F)F` (stereo partly drawn) [Example 39, 1-(4-cyano-3-(trifluoromethyl)phenyl)-N-(5-(4-((4-(((3R)-1-(6-(2,6-dioxopiperidin-3-yl)-5-oxo-6,7-dihydro-5H-pyrrolo[3,4-b]pyridin-2-yl)pyrrolidin-3-yl)methyl)piperazin-1-yl)methyl)piperidin-1-yl)pyridin-2-yl)piperidine-4-carboxamide], the inhibition at 0.01 µM stood at 80%, the inhibition at 0.1 µM is 98% and the inhibition at 1 µM was 95%.
Taken in the same sequence, the figures for `CC1(COc2ccc(NC(=O)C3CCN(c4ccc(C#N)c(C(F)(F)F)c4)CC3)nc2)CN(CC2CCN(c3ccc4c(c3)C(=O)N(C3CCC(=O)NC3=O)C4=O)CC2)C1` (stereo not drawn) [Example 186, 1-(4-cyano-3-(trifluoromethyl)phenyl)-N-(5-((1-((1-(2-(2,6-dioxopiperidin-3-yl)-1,3-dioxoisoindolin-5-yl)piperidin-4-yl)methyl)-3-methylazetidin-3-yl)methoxy)pyridin-2-yl)piperidine-4-carboxamide] were 66%, 94% and 96%.
Taken in the same sequence, the figures for `N#Cc1ccc(N2CCC(C(=O)Nc3ccc(N4CCC(CN5CCN(CC(=O)Nc6cccc(NC7CCC(=O)NC7=O)c6)CC5)CC4)cn3)CC2)cc1C(F)(F)F` (stereo not drawn) [Example 177, 1-(4-cyano-3-(trifluoromethyl)phenyl)-N-(5-(4-((4-(2-((3-((2,6-dioxopiperidin-3-yl)amino)phenyl)amino)-2-oxoethyl)piperazin-1-yl)methyl)piperidin-1-yl)pyridin-2-yl)piperidine-4-carboxamide] were 14%, 37% and 35%.
Taken in the same sequence, the figures for `N#Cc1ccc(N2CCC(C(=O)Nc3ccc(N4CCC(CCN5CCN(c6ccc7c(n6)CN(C6CCC(=O)NC6=O)C7=O)CC5)CC4)cn3)CC2)cc1C(F)(F)F` (stereo not drawn) [Example 92, 1-(4-cyano-3-(trifluoromethyl)phenyl)-N-(5-(4-(2-(4-(6-(2,6-dioxopiperidin-3-yl)-5-oxo-6,7-dihydro-5H-pyrrolo[3,4-b]pyridin-2-yl)piperazin-1-yl)ethyl)piperidin-1-yl)pyridin-2-yl)piperidine-4-carboxamide] were 53%, 67% and 96%.
As to `N#Cc1ccc(N2CCC(C(=O)Nc3ccc(N4CC[C@H](CN5CC6(CCN(c7ccc8c(c7)C(=O)N(C7CCC(=O)NC7=O)C8=O)CC6)C5)C4)cn3)CC2)cc1C(F)(F)F` (stereo partly drawn) [Example 62, 1-(4-cyano-3-(trifluoromethyl)phenyl)-N-(5-((3R)-3-((7-(2-(2,6-dioxopiperidin-3-yl)-1,3-dioxoisoindolin-5-yl)-2,7-diazaspiro[3.5]nonan-2-yl)methyl)pyrrolidin-1-yl)pyridin-2-yl)piperidine-4-carboxamide], the inhibition at 0.01 µM is 69%, the inhibition at 0.1 µM amounted to 95%, the inhibition at 1 µM worked out at 96% and the inhibition at 10 µM was determined as 87.5%.
Consider `N#Cc1ccc(N2CCC(C(=O)Nc3ccc(N4CCC(CCN5CCN(c6cccc7c6C(=O)N(C6CCC(=O)NC6=O)C7=O)CC5)CC4)cn3)CC2)cc1C(F)(F)F` (stereo not drawn) [Example 93, 1-(4-cyano-3-(trifluoromethyl)phenyl)-N-(5-(4-(2-(4-(2-(2,6-dioxopiperidin-3-yl)-1,3-dioxoisoindolin-4-yl)piperazin-1-yl)ethyl)piperidin-1-yl)pyridin-2-yl)piperidine-4-carboxamide], for which the inhibition at 0.01 µM is -11%, the inhibition at 0.1 µM turned out to be 55% and the inhibition at 1 µM stood at 68%.

The record behind these values is US12122763B2, “Substituted piperidines for androgen receptor degradation” (UBIX THERAPEUTICS, INC., priority 2020, dated 2024).
